Drawing on patent US10023562B2, “Heteroaryl substituted pyridyl compounds useful as kinase modulators” (BRISTOL-MYERS SQUIBB COMPANY, priority 2012, dated 2018), this text covers EC50 and IC50 for 38 molecules.

Sequence of IRAK4 (Q9NWZ3 whole entry, species assumed): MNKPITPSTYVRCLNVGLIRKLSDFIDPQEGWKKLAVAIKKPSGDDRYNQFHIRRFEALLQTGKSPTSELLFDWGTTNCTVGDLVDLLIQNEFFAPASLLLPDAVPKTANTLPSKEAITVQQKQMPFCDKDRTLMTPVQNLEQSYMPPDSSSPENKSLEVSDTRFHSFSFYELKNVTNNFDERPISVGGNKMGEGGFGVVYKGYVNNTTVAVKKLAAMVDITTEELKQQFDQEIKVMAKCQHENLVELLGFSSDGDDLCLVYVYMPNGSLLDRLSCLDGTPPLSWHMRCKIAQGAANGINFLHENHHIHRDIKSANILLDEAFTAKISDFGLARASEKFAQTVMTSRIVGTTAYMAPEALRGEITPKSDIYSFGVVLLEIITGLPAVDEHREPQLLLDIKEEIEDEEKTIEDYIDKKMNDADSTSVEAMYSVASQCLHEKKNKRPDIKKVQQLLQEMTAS

One test deals with TLR2 induced IL-6 in peripheral blood mononuclear cells (PBMCs). The test can be described thus: PBMC TLR2 Induced IL-6 Assay. The class given is cell-based. Conditions: Homo sapiens, PBMC, 5 h, 10 μg/ml lipoteichoic acid for 5 hours, IL-6 by ELISA, values marked * are EC50, read-out: Cell EC50 (values marked *). As to the method: PBMC TLR2 Induced IL-6 Assay Peripheral blood mononuclear cells (PBMCs) were isolated from human blood containing the anti-coagulant EDTA (2.5 mM) by centrifugation over a FICOLL® gradient. […] At the end of the culture, plates were centrifuged at 1800 rpm for 10 minutes to pellet the cells. Supernatants were harvested and analyzed for IL-6 levels by ELISA (BD Biosciences, San Jose, Calif.).
(In general: An ELISA detects its analyte on a solid surface through an enzyme-linked reagent.)
For `CC(C)Nc1cc(Nc2ncc(Cl)cc2Cl)ncc1C(=O)NC[C@@H](F)C(C)(C)O` [Example 84], the EC50 (in general, the concentration that produces a half-maximal response) amounted to 138 nM.
The same measure, in the same setting: in the case of `CC(=O)N[C@H]1CC[C@H](NC(=O)c2cnc(Nc3ncc(C#N)cc3Cl)cc2NC2CC2)CC1` [Example 67] it was 457 nM; in that of `CC(=O)N[C@H]1CC[C@H](NC(=O)c2cnc(Nc3ncc(C#N)cc3F)cc2NC2CC2)CC1` [Example 83], 771 nM.
Still for that read-out and setting: to `CC(C)Nc1cc(Nc2ncc(C#N)c(N)n2)ncc1C(=O)NC[C@@H](F)C(C)(C)O` [Example 136] belongs 63 nM; to `CC(C)(O)[C@H](F)CNC(=O)c1cnc(Nc2ncc(C#N)cc2Cl)cc1N[C@H]1CC[C@@](C)(O)CC1` [Example 152], 260 nM; to `CC(C)(O)[C@H](F)CNC(=O)c1cnc(Nc2ncc(C#N)cc2Cl)cc1NC1CCCCC1O` (stereo partly drawn) [Example 104], 199 nM.
Still for that read-out and setting: to `CC(C)Nc1cc(Nc2ncc(C#N)cc2F)ncc1C(=O)NCCc1ccc(S(N)(=O)=O)cc1` [Example 121] belongs 49 nM; to `C[C@H](CO)Nc1cc(Nc2ncc(F)cc2F)ncc1C(=O)NC[C@@H](F)C(C)(C)O` [Example 100], 308 nM.
As to `CC(=O)N[C@H]1CC[C@H](NC(=O)c2cnc(Nc3ncncc3Cl)cc2NC(C)C)CC1` [Example 106], the EC50 is 433 nM.
Turning to `CC(C)Nc1cc(Nc2ncc(C#N)cc2Cl)ncc1C(=O)NC[C@H](F)C(C)(C)O` [Example 156], the EC50 stood at 124 nM.
Still for that read-out and setting: to `CC(C)(O)[C@H](F)CNC(=O)c1cnc(Nc2ncc(C#N)cc2F)cc1Nc1cccc(C(N)=O)c1` [Example 135] belongs 129 nM.
On to `CCNC(=O)[C@H]1CC[C@H](NC(=O)c2cnc(Nc3ncc(C#N)cc3F)cc2NC(C)C)CC1` [Example 30, 6-((5-cyano-3-fluoropyridin-2-yl)amino)-N-((1R,4R)-4-(ethylcarbamoyl)cyclohexyl)-4-(isopropylamino)nicotinamide], for which the concentration for a half-maximal effect (EC50) is 163 nM.
Take `Cc1cnc(Nc2cc(NC(C)C)c(C(=O)NC[C@@H](F)C(C)(C)O)cn2)nc1` [Example 113]: the EC50 turned out to be 558 nM.
On to `CC(C)(O)[C@H](F)CNC(=O)c1cnc(Nc2ncc(C#N)cc2F)cc1Nc1ccc(C(N)=O)cc1` [Example 142], for which the EC50 was found to be 93 nM.
The same measure, in the same setting: in the case of `CC(C)Nc1cc(Nc2ncc(C#N)cc2F)ncc1C(=O)N[C@H]1CC[C@H](C(=O)NC2CC2)CC1` [Example 118] it was 172 nM; in that of `CC(C)(O)[C@H](F)CNC(=O)c1cnc(Nc2ncc(C(N)=O)cc2Cl)cc1NC1CCC(F)C1` (stereo partly drawn) [Example 38], 453 nM.
Turning to `CC(C)Nc1cc(Nc2nc(OC3CCNCC3)ncc2Cl)ncc1C(=O)NC[C@@H](F)C(C)(C)O` [Example 41], the EC50 is 160 nM.
Same read-out and setting: in the case of `COC[C@H](F)CNC(=O)c1cnc(Nc2ncc(C#N)cc2F)cc1NC(C)C` [Example 35, (R)-6-((5-cyano-3-fluoropyridin-2-yl)amino)-N-(2-fluoro-3-methoxypropyl)-4-(isopropylamino)nicotinamide] it was 350 nM.
For `CC(C)(O)[C@H](F)CNC(=O)c1cnc(Nc2ncc(C#N)cc2Cl)cc1NC12CC(C1)C2` [Example 90], the EC50 is 243 nM.
Still for that read-out and setting: to `CC(C)(O)[C@H](F)CNC(=O)c1cnc(Nc2ncc(C#N)cc2F)cc1Nc1cccc(NS(C)(=O)=O)c1` [Example 134] belongs 203 nM; to `[2H]C([2H])([2H])OC(C)(C)[C@H](F)CNC(=O)c1cnc(Nc2ncc(C#N)cc2F)cc1NC(C)C` [Example 37], 95 nM.
With `CC(C)Nc1cc(Nc2ncc(C#N)cc2F)ncc1C(=O)N[C@H]1CC[C@H](C(C)(C)O)CC1` [Example 137], the EC50 was 72 nM.
Take `CC(C)CCNc1cc(Nc2ncc(C#N)cc2F)ncc1C(=O)NC[C@@H](F)C(C)(C)O` [Example 141]: the concentration for a half-maximal effect (EC50) amounted to 412 nM.

The same test, now with this note: Homo sapiens, PBMC, 5 h, 10 μg/ml lipoteichoic acid for 5 hours, IL-6 by ELISA, values without asterisk, read-out: Cell IC50.
With `CC(C)(O)CNc1cc(Nc2ncc(C#N)cc2Cl)ncc1C(=O)NC[C@@H](F)C(C)(C)O` [Example 48], the concentration for half-maximal inhibition (IC50) (as a rule, the concentration that inhibits the measured activity by half) stood at 369 nM.
Turning to `CCNc1cc(Nc2ccc(C#N)cn2)ncc1C(=O)NC[C@@H](F)C(C)(C)O` [Example 4, 6-((5-cyano-2-pyridinyl)amino)-4-(ethylamino)-N-((2R)-2-fluoro-3-hydroxy-3-methylbutyl)nicotinamide], the IC50 was found to be 454 nM.
As for `CC(C)Nc1cc(Nc2ncncc2Cl)ncc1C(=O)NC[C@@H](F)C(C)(C)O` [Example 52], the half-maximal inhibitory concentration (IC50) came out at 74 nM.
On the same count and under the same terms, to `CC(C)Nc1cc(Nc2ccc(=O)[nH]n2)ncc1C(=O)NC[C@@H](F)C(C)(C)O` [Example 45] belongs 712 nM; to `CC(=O)N[C@H]1CC[C@H](NC(=O)c2cnc(Nc3ncc(C#N)cc3F)cc2NC(C)C)CC1` [Example 19, N-(trans-4-acetamidocyclohexyl)-6-((5-cyano-3-fluoro-2-pyridinyl)amino)-4-(isopropylamino)nicotinamide], 378 nM.
For the molecule `CC(C)Nc1cc(Nc2ccnc(NC3CC3)n2)ncc1C(=O)NC[C@@H](F)C(C)(C)O` [Example 24, 6-((2-(cyclopropylamino)-4-pyrimidinyl)amino)-N-((2R)-2-fluoro-3-hydroxy-3-methylbutyl)-4-(isopropylamino)nicotinamide], the IC50 was 312 nM.
With `CC(C)(O)[C@H](F)CNC(=O)c1cnc(Nc2ncncc2Cl)cc1NC1CCCOC1` (stereo partly drawn) [Example 96], the IC50 was found to be 1550 nM.
Same read-out and setting: in the case of `CC(=O)N[C@H](C)CCNC(=O)c1cnc(Nc2ncc(C#N)cc2F)cc1NC(C)C` [Example 64] it was 448 nM.
The same measure, in the same setting: to `CC(C)(O)[C@H](F)CNC(=O)c1cnc(Nc2ncc(C#N)cc2F)cc1NC1CC1` [Example 47] belongs 69 nM.
As for `CC(C)Nc1cc(Nc2ccnc(NC3CCCOC3)n2)ncc1C(=O)NC[C@@H](F)C(C)(C)O` (stereo partly drawn) [Example 25, N-((2R)-2-fluoro-3-hydroxy-3-methylbutyl)-4-(isopropylamino)-6-((2-(tetrahydro-2H-pyran-3-ylamino)-4-pyrimidinyl)amino)nicotinamide], the IC50 was determined as 372 nM.
Same read-out and setting: in the case of `CC(C)Nc1cc(Nc2ccc(C#N)cn2)ncc1C(=O)N[C@H]1CC[C@H](C(=O)N[C@H]2C[C@H]2F)CC1` [Example 7, 6-((5-cyano-2-pyridinyl)amino)-N-(trans-4-(((1S,2R)-2-fluorocyclopropyl)carbamoyl)cyclohexyl)-4-(isopropylamino)nicotinamide] it was 800 nM; in that of `CCC(C)Nc1cc(Nc2ncc(C#N)cn2)ncc1C(=O)NC[C@@H](F)C(C)(C)O` (stereo partly drawn) [Example 99], 475 nM; in that of `CC(C)(O)[C@H](F)CNC(=O)c1cnc(Nc2nc(-c3cccnc3)cs2)cc1NC1CC1` [Example 23, 4-(cyclopropylamino)-N-((2R)-2-fluoro-3-hydroxy-3-methylbutyl)-6-((4-(3-pyridinyl)-1,3-thiazol-2-yl)amino)nicotinamide], 32 nM.

Staying with this test, now noted: human PBMC, 10 μg/ml lipoteichoic acid for 5 hours, IL-6 by ELISA; values marked * are EC50; read-out: Cell EC50 (values marked *).
Turning to `CC(C)(O)[C@H](F)CNC(=O)c1cnc(Nc2ncc(C#N)cc2F)cc1NC1COC1` [Example 164], the half-maximal effective concentration (EC50) came to 174 nM.
Still for that read-out and setting: to `Cc1cnc(Nc2cc(NC(C)C)c(C(=O)NC[C@@H](F)C(C)(C)O)cn2)c(F)c1` [Example 129] belongs 398 nM.

In the next test the target is IRAK4 (Homo sapiens (Human), UniProt Q9NWZ3). The test can be described thus: IRAK4 Inhibition Assay. The class given is biochemical. The conditions noted are these: ATP 500 μM; IRAK4 0.6 nM; 60 min at room temperature. The protocol:
IRAK4 Inhibition Assay The assays were performed in U-bottom 384-well plates. […] The reaction was initiated by the combination of IRAK4 with substrates and test compounds. The reaction mixture was incubated at room temperature for 60 min. and terminated by adding 45 μL of 35 mM EDTA to each sample. The reaction mixture was analyzed on the Caliper LABCHIP® 3000 (Caliper, Hopkinton, Mass.) by electrophoretic separation of the fluorescent substrate and phosphorylated product.
Take `CC(C)Nc1cc(Nc2ncc(Cl)cc2Cl)ncc1C(=O)NC[C@@H](F)C(C)(C)O` [Example 84]: the IC50 was 1.5 nM.
